Results published in the supplement of paper PMC10307832.

What was measured:
Test in all cases: relative viability (nuclei count vs DMSO), 5 days (fraction); higher = more cells survive
Entinostat + Linsitinib = compound: Nc1ccccc1NC(=O)c1ccc(CNC(=O)OCc2cccnc2)cc1 [Entinostat] + C[C@]1(O)C[C@@H](c2nc(-c3ccc4ccc(-c5ccccc5)nc4c3)c3c(N)nccn32)C1 [Linsitinib] (partner 1 µM)
How it was run: (§1)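 A single step with final 0.05% Triton X-100, 1% formaldehyde and 1 ug/ml Hoechst fixed the cells and stained nuclei 5 days after treatment. Lung cancer cell lines in 1536-well plates had been treated by pin tool the day after seeding with one drug alone or a fixed anchor-drug dose plus five library-drug doses (not always all listed) in √10 steps, and nuclei were counted on 4× images. Relative viability is the ratio of nuclei in treated wells to nuclei in vehicle wells, taken as the median of duplicate plates.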

SGI-1776 + Lapatinib = compound: CN1CCC(CNc2ccc3ncc(-c4cccc(OC(F)(F)F)c4)n3n2)CC1 [SGI-1776] + CS(=O)(=O)CCNCc1ccc(-c2ccc3ncnc(Nc4ccc(OCc5cccc(F)c5)c(Cl)c4)c3c2)o1 [Lapatinib] (partner 2 µM)
How it was run: as §1

Entinostat + Tozasertib = compound: Nc1ccccc1NC(=O)c1ccc(CNC(=O)OCc2cccnc2)cc1 [Entinostat] + Cc1cc(Nc2cc(N3CCN(C)CC3)nc(Sc3ccc(NC(=O)C4CC4)cc3)n2)n[nH]1 [Tozasertib] (partner 0.1 µM)
How it was run: as §1

[1] = compound: C1COCCN1C2=NC(=NC3=C2OC4=C3C=CC=N4)C5=CC(=CC=C5)NC(=O)C6=CN=C(C=C6)N + C[C@@H](Oc1cc(-c2cnn(C3CCNCC3)c2)cnc1N)c1c(Cl)ccc(F)c1Cl [Crizotinib] (partner 1 µM)
How it was run: as §1

Cell Line | relative viability (Entinostat + Linsitinib; first compound 0.02 µM) | relative viability (Entinostat + Linsitinib; first compound 0.06325 µM) | relative viability (Entinostat + Linsitinib; first compound 0.2 µM) | relative viability (Entinostat + Linsitinib; first compound 0.6325 µM) | relative viability (Entinostat + Linsitinib; first compound 2 µM) | relative viability (SGI-1776 + Lapatinib; first compound 0.08 µM) | relative viability (SGI-1776 + Lapatinib; first compound 0.8 µM) | relative viability (SGI-1776 + Lapatinib; first compound 2.53 µM) | relative viability (SGI-1776 + Lapatinib; first compound 8 µM) | relative viability (Entinostat + Tozasertib; first compound 0.02 µM) | relative viability (Entinostat + Tozasertib; first compound 0.06325 µM) | relative viability (Entinostat + Tozasertib; first compound 0.2 µM) | relative viability (Entinostat + Tozasertib; first compound 0.6325 µM) | relative viability (Entinostat + Tozasertib; first compound 2 µM) | relative viability ([1]; first compound 0.02 µM) | relative viability ([1]; first compound 0.06325 µM) | relative viability ([1]; first compound 0.2 µM) | relative viability ([1]; first compound 0.6325 µM) | relative viability ([1]; first compound 2 µM)
201T | 1.1 | 1.13 | 1.09 | 0.902 | 0.617 | 1 | 0.981 | 1.02 | 0.942 | 0.898 | 0.811 | 0.589 | 0.501 | 0.385 | 1.02 | 1.05 | 1.03 | 1.01 | 0.736
A549 | 0.595 | 0.646 | 0.627 | 0.648 | 0.602 | 0.965 | 0.993 | 0.958 | 0.652 | – | – | – | – | – | 1 | 0.903 | 0.66 | 0.764 | 0.302
A-427 | 1.16 | 1.15 | 1.01 | 1.07 | 0.825 | 1.05 | 1.02 | 1.01 | 0.966 | 0.213 | 0.225 | 0.203 | 0.182 | 0.159 | 0.895 | 0.881 | 0.738 | 0.809 | 0.406
ABC-1 | 0.686 | 0.992 | 0.807 | 0.481 | 0.506 | 1.36 | 1.16 | 1.28 | 1.1 | 0.175 | 0.237 | 0.189 | 0.2 | 0.193 | 1.02 | 1.29 | 0.93 | 1.33 | 0.666
BEN | 0.974 | 0.928 | 0.83 | 0.537 | 0.249 | 0.695 | 0.739 | 0.705 | 0.532 | 0.476 | 0.478 | 0.443 | 0.356 | 0.401 | 0.928 | 0.841 | 0.932 | 0.821 | 0.504
CAL-12T | 0.838 | 0.815 | 0.814 | 0.909 | 0.392 | 0.635 | 0.61 | 0.871 | 0.598 | 0.284 | 0.364 | 0.319 | 0.186 | 0.206 | 0.843 | 0.634 | 0.688 | 0.559 | 0.507
COR-L23 | 0.829 | 0.763 | 0.748 | 0.416 | 0.132 | 1.1 | 0.9 | 0.914 | 0.922 | 0.159 | 0.19 | 0.198 | 0.0831 | 0.0903 | 0.68 | 0.748 | 0.716 | 0.809 | 0.43
COR-L 105 | 1.01 | 0.974 | 0.876 | 0.491 | 0.341 | 0.332 | 0.394 | 0.388 | 0.244 | 0.372 | 0.291 | 0.309 | 0.273 | 0.286 | 0.792 | 0.722 | 0.567 | 0.752 | 0.481
Calu-6 | 0.859 | 0.961 | 0.852 | 0.739 | 0.502 | 1.12 | 1.11 | 1.01 | 0.771 | – | – | – | – | – | 1.1 | 0.876 | 0.758 | 0.822 | 0.454
ChaGo-K-1 | – | – | – | – | – | – | – | – | – | 0.256 | 0.227 | 0.211 | 0.197 | 0.19 | 1.2 | 1.14 | 1.01 | 1.26 | 0.717
EBC-1 | 0.934 | 0.94 | 0.811 | 0.22 | 0.122 | 0.207 | 0.214 | 0.182 | 0.138 | – | – | – | – | – | 0.209 | 0.196 | 0.197 | 0.168 | 0.172
EKVX | 0.896 | 1.01 | 0.79 | 0.663 | 0.438 | 0.225 | 0.205 | 0.209 | 0.166 | 0.384 | 0.414 | 0.323 | 0.234 | 0.192 | 1.06 | 0.985 | 1.03 | 1.03 | 0.62
EMC-BAC-2 | 0.837 | 0.915 | 0.983 | 0.731 | 0.487 | 0.912 | 0.902 | 0.836 | 0.849 | 0.302 | 0.254 | 0.228 | 0.17 | 0.229 | 0.8 | 0.792 | 0.76 | 0.805 | 0.598
EPLC-272H | 1.2 | 1.22 | 0.697 | 0.627 | 0.405 | 1.04 | 0.889 | 1.1 | 0.771 | 0.265 | 0.291 | 0.277 | 0.154 | 0.197 | 0.977 | 1.03 | 1.01 | 1.04 | 0.722
H3255 | 0.892 | 0.87 | 0.765 | 0.507 | 0.304 | 0.285 | 0.33 | 0.259 | 0.198 | 0.48 | 0.468 | 0.503 | 0.315 | 0.204 | 0.729 | 0.805 | 0.758 | 0.844 | 0.586
HARA | 0.917 | 0.938 | 0.938 | 0.793 | 0.577 | 0.886 | 0.856 | 0.617 | 0.586 | 0.121 | 0.123 | 0.138 | 0.117 | 0.0945 | 1.01 | 1.23 | 1.06 | 0.978 | 0.662
HCC-15 | 0.82 | 0.8 | 0.713 | 0.546 | 0.319 | 0.821 | 0.882 | 0.933 | 0.786 | 0.306 | 0.346 | 0.258 | 0.0932 | 0.0635 | 0.824 | 0.938 | 0.843 | 0.819 | 0.545
HCC-44 | 0.676 | 0.474 | 0.357 | 0.27 | 0.197 | 1.04 | 1.15 | 1.01 | 0.962 | 0.898 | 0.581 | 0.553 | 0.309 | 0.221 | 0.879 | 0.927 | 0.835 | 0.887 | 0.624
